In PubChem BioAssay (NCI):
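Dose response: 5 concentrations. Exposure: 48 h. Format: 96-well plates. Endpoint: linear interpolation; highest concentration if not reached. GI50 marks 50% less growth. The concentration for full growth arrest is given as TGI.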

Key:
Assay in all cases: DTP human tumour cell line panel, 48 h
786-0 renal = tested on: 786-0 renal
COLO 205 colon = tested on: COLO 205 colon
HCT-116 colon = tested on: HCT-116 colon
HOP-92 NSCLC = tested on: HOP-92 NSCLC
HS 578T breast = tested on: HS 578T breast
LOX IMVI melanoma = tested on: LOX IMVI melanoma
M14 melanoma = tested on: M14 melanoma
NCI-H460 lung = tested on: NCI-H460 lung
SK-MEL-2 melanoma = tested on: SK-MEL-2 melanoma
SK-MEL-28 melanoma = tested on: SK-MEL-28 melanoma

| Compound | TGI (786-0 renal) [µM] | TGI (COLO 205 colon) [µM] | TGI (HCT-116 colon) [µM] | TGI (HOP-92 NSCLC) [µM] | TGI (HS 578T breast) [µM] | TGI (LOX IMVI melanoma) [µM] | TGI (M14 melanoma) [µM] | TGI (NCI-H460 lung) [µM] | TGI (SK-MEL-2 melanoma) [µM] | TGI (SK-MEL-28 melanoma) [µM] | GI50 (786-0 renal) [µM] | GI50 (COLO 205 colon) [µM] | GI50 (HCT-116 colon) [µM] | GI50 (HOP-92 NSCLC) [µM] | GI50 (HS 578T breast) [µM] | GI50 (LOX IMVI melanoma) [µM] | GI50 (M14 melanoma) [µM] | GI50 (NCI-H460 lung) [µM] | GI50 (SK-MEL-2 melanoma) [µM] | GI50 (SK-MEL-28 melanoma) [µM] |
| --- | --- | --- | --- | --- | --- | --- | --- | --- | --- | --- | --- | --- | --- | --- | --- | --- | --- | --- | --- | --- |
| O=C(/C=N/O)c1c(-c2ccccc2)[nH]c(-c2ccccc2)c1-c1ccccc1 | > 100 | 36.6 | 72.6 | 67.1 | 85.2 | 41.3 | 73.6 | 41.8 | 24 | 39 | – | – | – | – | – | – | – | – | – | – |
| Nc1nc(Cl)nc2c1ncn2C1O[C@H](CO)[C@@H](O)[C@@H]1F (stereo not given in full) | 0.486 | > 100 | > 100 | 4.8 | > 100 | > 100 | 0.292 | > 100 | > 100 | > 100 | 0.092 | 0.523 | 0.13 | 0.0653 | > 94.2 | 0.468 | 0.0876 | 0.37 | > 100 | > 100 |
| COc1ccc(/C=C(/C(=O)N2CCNCC2)c2cc(OC)c(OC)c(OC)c2)cc1O | > 100 | 14 | > 100 | > 100 | 30 | > 100 | > 100 | > 100 | > 100 | > 100 | 33.1 | 3.24 | 3.45 | 23.5 | 2.42 | 5.21 | 3.83 | 3.42 | 3.51 | 8.84 |
| CC(C)(C)c1ccc(-c2nnc(SCc3ccc(Cl)cc3)n2-c2cccc(C(F)(F)F)c2)cc1 | > 100 | 23.4 | > 100 | > 100 | > 100 | > 100 | > 100 | > 100 | > 69.5 | > 100 | – | – | – | – | – | – | – | – | – | – |
| O=C(CC1C(=O)Nc2ccccc2S1=O)Nc1cccc(Cl)c1 (stereo not given) | > 100 | > 66.1 | > 67.3 | 53.8 | > 100 | > 100 | > 65 | > 83.2 | > 100 | > 100 | – | – | – | – | – | – | – | – | – | – |
| CCN1C(=O)N(c2c(F)c(OC)cc(OC)c2F)Cc2cnc3[nH]c(CN4CCOCC4)cc3c21 | 30.1 | > 100 | 19.4 | > 100 | > 100 | > 100 | > 100 | > 100 | 41.8 | > 100 | 2.84 | 3.15 | 1.84 | 2.06 | 1.82 | 2.37 | 1.32 | 1.86 | 1.08 | 8.06 |
| NC(=O)NC(=O)CI | 13.5 | 3.73 | 3.12 | 3.89 | 47.8 | 2.71 | 17.4 | 37.3 | 18.7 | 26.2 | 4.7 | 1.91 | 1.39 | 1.65 | 15.8 | 1.08 | 5.12 | 18.5 | 5.78 | 13 |
| CC1=C(C(=O)Nc2ccc(F)c(Cl)c2)C(c2cccc(Cl)c2)NC(=O)N1 (stereo not given) | 35.3 | 27.8 | 27.9 | 33 | 37.7 | 31.6 | 31.7 | 34 | 30.5 | 28 | 17.4 | 13.7 | 14.7 | 15.5 | 12.9 | 16.9 | 15.8 | 16.4 | 15.7 | 13.8 |
| COc1cc2c(/C=C3\C(=O)Nc4ccc(Br)cc43)c(Cl)n(C)c2cc1C | 3.94 | 5.43 | 7.17 | 17.9 | 3.46 | 6.7 | 6.01 | 4.69 | 5.7 | 3.49 | 0.998 | 1.96 | 1.61 | 2.37 | 0.517 | 1.44 | 1.8 | 0.916 | 1.74 | 0.418 |
| CC(O)CN(CCN(CC(C)O)CC(C)O)CC(C)O.O=[N+]([O-])O.[Cu+2] (stereo not given) | > 100 | > 100 | > 100 | > 100 | > 100 | > 100 | > 100 | > 100 | > 100 | > 100 | > 100 | > 100 | > 100 | > 100 | > 100 | > 100 | > 100 | 99.2 | > 100 | > 100 |
| O=Cc1ccc(C(F)(F)F)cc1.[C-]#[O+].[C-]#[O+].[C-]#[O+].[Cr] | 44.1 | > 100 | 38.7 | > 100 | 75.9 | > 100 | 37 | 40.3 | > 100 | > 100 | 13.1 | 27.4 | 16.7 | 24.8 | 24.6 | 26.2 | 12.9 | 13.3 | 23.7 | 63 |
| COc1ccc(C(=O)Nc2cccc(C3CC(=O)c4c(cc(OC)c(OC)c4OC)O3)c2)cc1 (stereo not given) | > 100 | 6.57 | > 100 | 8.31 | 42.4 | 52.4 | 41.7 | 11.7 | 27.1 | > 100 | 0.795 | 2.39 | 0.381 | 1.66 | 2 | 0.84 | 0.534 | 2.21 | 2.09 | 5.13 |
| O=C(O)/C(Cl)=C(/Cl)C(=O)Nc1cccc(Cl)c1 | 31.8 | 23.3 | 31.8 | 30.8 | 71.6 | 20.8 | 43.2 | > 100 | 49.8 | 32.8 | – | – | – | – | – | – | – | – | – | – |
| Fc1ccc(Nc2nc(Nc3ccc(-c4nc5ccccc5[nH]4)cc3)nc(N3CCCC3)n2)cc1 | 3.35 | 3.73 | 3.52 | 5.38 | 5.82 | 3.55 | 3.95 | 4.2 | 28 | 3.66 | 1.8 | 1.81 | 1.78 | 1.76 | 2.16 | 1.77 | 1.89 | 2 | 13 | 1.87 |
| Cc1cc(S(N)(=O)=O)c(S/C(=N\NS(=O)(=O)c2ccc(Cl)cc2)c2ccc(Cl)cc2)cc1Cl | > 100 | > 100 | > 100 | > 100 | > 100 | > 100 | > 100 | > 100 | > 100 | > 100 | > 100 | 85.2 | > 100 | > 100 | 79.7 | > 100 | > 100 | > 100 | > 100 | > 100 |
